Reference: PMC12455397 (Angewandte Chemie (International Ed. in English), 2025)
Structures can show the parent of a compound that is named as a salt. Where two headings read alike, the source gives them in different places.

What was measured:
[1] = test system: Nrf2 KO THP1 cells differentiated into macrophages; test: RNA sequencing transcriptome analysis, Nrf2 KO THP-1 macrophages; type: cell-based; details: 12 h, CDDO-Me 0.1 µM, DMF, 24, 28 10 µM, KI-696 1 µM
[2] = test system: differentiated THP1 macrophages (WT); details: for number of upregulated genes not shared by the other groups: DMF 10 µM
Keap1 Kelch domain = Keap1 Kelch domain (Homo sapiens, UniProt Q14145); test: Surface plasmon resonance (SPR), immobilized Keap1 Kelch
Keap1 Kelch domain, sequence (Q14145 321-609 limits assumed): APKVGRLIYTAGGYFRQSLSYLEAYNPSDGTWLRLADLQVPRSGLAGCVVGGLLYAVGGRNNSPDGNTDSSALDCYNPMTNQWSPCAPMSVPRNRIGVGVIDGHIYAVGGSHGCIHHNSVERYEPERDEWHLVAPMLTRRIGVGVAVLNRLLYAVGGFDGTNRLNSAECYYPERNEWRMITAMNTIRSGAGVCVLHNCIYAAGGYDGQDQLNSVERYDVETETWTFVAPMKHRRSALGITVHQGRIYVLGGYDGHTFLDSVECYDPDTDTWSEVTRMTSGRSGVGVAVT
Protocol: Surface Plasmon Resonance
SPR measurements were performed at 25 °C using a Pioneer FE FE instrument (Sartorius), as described
previosuly.[1, 3-4] The Keap1 Kelch domain was covalently immobilized on the biosensor chip surface by
amine coupling to a level of 2150 RU, using a 10 mM NaOAc pH 5 immobilization buffer. The 1×HBSTET
buffer (10 mM Hepes, 150 mM NaCl, 0.005% Tween20, 3 mM EDTA, 1 mM TCEP, pH = 7.4)
supplemented with 4% DMSO was used as running buffer for the experiments. Microcalibration was
performed for all SPR experiments to adjust for DMSO bulk effects (low limit of 3% and a high limit of
5%). The compound was injected in a concentration series of twofold serial dilutions (67.5–1000 µM)
using standard injections at a 30 μL/min flow rate. The data were analyzed using Qdat Data Analysis
Tool version 2.6.3.0 (Sartorius). The sensorgrams were corrected for buffer effects and unspecific
binding to the chip matrix by subtraction of blank and reference surfaces (a blank flow cell channel
activated by the injection of EDC/NHS and inactivated by the injection of ethanolamine). The
dissociation constant (Kd) was estimated by plotting MW normalized response levels (RUnorm) at equilibrium (Req) against the injected concentration and curve-fitted to a Langmuir (1:1) binding

human Keap1 Kelch = human Keap1 Kelch (Homo sapiens, UniProt Q14145); test: Fluorescence polarization (FP) competition assay with Cy5-Nrf2 peptide probe
human Keap1 Kelch, sequence (Q14145 321-609): as the sequence (Q14145 321-609 limits assumed) above
Protocol: Fluorescence Polarization Assay
(3 nM) and human Keap1 Kelch at 14 nM in the 1×HBSTET assay buffer, as previously.[1, 3-5] In short, the assay was performed in black flat-bottom 384-well plates (Corning Life Sciences, NY) allowing an assay volume of 30 μL/well. Proper mixing and elimination of air bubbles was ascertained by spinning down the plates and incubation for 10–15 minutes at RT before measuring FP levels on a Safire2 plate-reader (Tecan, Männedorf, Switzerland). The Ki values of the compounds were determined by dose-response experiments (12-points, 4% DMSO in all wells), where FP values were fitted to the equation Y = Bottom + (Top - Bottom)/[1 + (10HillSlope*(LogIC50-X))]; X representing the logarithmic value of compound concentration. The resulting IC50 value, together with the Kd value (the dissociation constant between probe and Keap1 Kelch, determined in a prior experiment) and Keap1 Kelch concentrations, was used to calculate the theoretical competitive inhibition constant, the Ki value.[18]

THP1 cells = type: cell-based; details: THP-1 WT, 100 µM, 48 h; stated as contrast to 24/28, which did not reduce viability
Protocol: THP1 cells were exposed to the compounds for 48 hours at 10 and 100 μM. Viability was quantified using
propidium iodide exclusion through flow cytometry. PI-positive cells (dead or necrotic cells) were quantified
through red fluorescence on a BD C6 Accuri flow cytometer using a 488 nm excitation wavelength and an
emission filter of 585 nm ± 40 nm (BD Biosciences). 50,000 events were collected (n = 3 technical replicates
per condition). The experiment was repeated twice. Data are presented as mean ± SEM (n = 4‒10).

[3] = WT, 12 h, CDDO-Me 0.1 µM, SFN, DMF, 24, 28 10 µM, KI-696 1 µM
[4] = WT, 12 h, CDDO-Me 0.1 µM, SFN, DMF, 24, 28 10 µM, KI-696 1 µM, NS = not significant

| SMILES | AKR1B10 FC ([2]; Table S3, THP-1, 12 h) | CASP1 FC ([2]; Table S3, THP-1, 12 h) | COL1A1 FC ([2]; Table S3, THP-1, 12 h) | COL4A1 FC ([2]; Table S3, THP-1, 12 h) | COL4A2 FC ([2]; Table S3, THP-1, 12 h) | GPX1 FC ([2]; Table S3, THP-1, 12 h) | GPX4 FC ([2]; Table S3, THP-1, 12 h) | IFNAR1 FC ([2]; Table S3, THP-1, 12 h) | IFNAR2 FC ([2]; Table S3, THP-1, 12 h) | IFNGR1 FC ([2]; Table S3, THP-1, 12 h) | IFNGR2 FC ([2]; Table S3, THP-1, 12 h) | IL1B FC ([2]; Table S3, THP-1, 12 h) | IRF3 FC ([2]; Table S3, THP-1, 12 h) | LAMB1 FC ([2]; Table S3, THP-1, 12 h) | LAMB4 FC ([2]; Table S3, THP-1, 12 h) | MMP8 FC ([2]; Table S3, THP-1, 12 h) | MMP9 FC ([2]; Table S3, THP-1, 12 h) | MMP12 FC ([2]; Table S3, THP-1, 12 h) | NLRP3 FC ([2]; Table S3, THP-1, 12 h) | NOD2 FC ([2]; Table S3, THP-1, 12 h) | other results |
| --- | --- | --- | --- | --- | --- | --- | --- | --- | --- | --- | --- | --- | --- | --- | --- | --- | --- | --- | --- | --- | --- |
| COC(=O)[C@]12CCC(C)(C)C[C@H]1[C@H]1C(=O)C=C3[C@@]4(C)C=C(C#N)C(=O)C(C)(C)[C@@H]4CC[C@@]3(C)[C@]1(C)CC2 [CDDO-Me, bardoxolone methyl] | 61,69 fold | 1,31 fold | 3,46 fold | 0,30 fold | 0,49 fold | 0,44 fold | 0,91 fold | 0,82 fold | 0,52 fold | 0,81 fold | 0,41 fold | 0,13 fold | 0,95 fold | 3,83 fold | 5,61 fold | 0,21 fold | 0,51 fold | 0,25 fold | 0,43 fold | 0,78 fold | number of up- or downregulated genes in Nrf2 KO cells [1]: 2149 genes; NOXA1 FC ([2]; Table S3, THP-1, 12 h): 0,67 fold; SOCS1 FC ([2]; Table S3, THP-1, 12 h): 0,37 fold; SOCS3 FC ([2]; Table S3, THP-1, 12 h): 1,14 fold; SOD1 FC ([2]; Table S3, THP-1, 12 h): 2,71 fold; SOD2 FC ([2]; Table S3, THP-1, 12 h): 0,36 fold; STAT1 FC ([2]; Table S3, THP-1, 12 h): 1,02 fold; TBK1 FC ([2]; Table S3, THP-1, 12 h): 1,06 fold; TLR4 FC ([2]; Table S3, THP-1, 12 h): 0,26 fold; TNFRSF1B FC ([2]; Table S3, THP-1, 12 h): 0,27 fold; TRAP1 FC ([2]; Table S3, THP-1, 12 h): 0,64 fold; cGAS FC ([2]; Table S3, THP-1, 12 h): 1,19 fold; number of upregulated genes not shared by the other groups ([2]; WT, 12 h, CDDO-Me 0.1 µM): > 500 genes; Average FC of upregulated Nrf2-dependent genes [2, 3]: 5.0 fold; number of upregulated genes (FC >2.0, p-adj <0.05) [2, 3]: 1091 genes |
| O=C(COc1ccccc1)NC1CCCCC1 [Compound 1] |  |  |  |  |  |  |  |  |  |  |  |  |  |  |  |  |  |  |  |  | Kd (Keap1 Kelch domain; KD (SPR, printed in Figure 1b), Rmax fixed to theoretical maximum (15 RU)): 686 ± 7 µM; Kd (Keap1 Kelch domain; Kd (SPR), estimated with Rmax fixed to theoretical maximum): ~700 µM; ligand efficiency (LE) (Keap1 Kelch domain; from SPR Kd): 0.25; activity in FP competition assay (human Keap1 Kelch): inactive |
| COC(=O)/C=C/C(=O)OC [DMF, dimethyl fumarate] | 1,00 fold | 0,18 fold | 0,44 fold | 1,46 fold | 1,16 fold | 0,59 fold | 1,09 fold | 0,95 fold | 0,80 fold | 0,93 fold | 0,78 fold | 2,70 fold | 1,15 fold | 4,44 fold | 7,56 fold | 1,70 fold | 0,85 fold | 1,88 fold | 1,19 fold | 0,31 fold | number of up- or downregulated genes in Nrf2 KO cells [1]: 3709 genes; cell viability (THP1 cells): contrasted; NOXA1 FC ([2]; Table S3, THP-1, 12 h): 0,30 fold; SOCS1 FC ([2]; Table S3, THP-1, 12 h): 5,21 fold; SOCS3 FC ([2]; Table S3, THP-1, 12 h): 18,01 fold; SOD1 FC ([2]; Table S3, THP-1, 12 h): 1,73 fold; SOD2 FC ([2]; Table S3, THP-1, 12 h): 0,19 fold; STAT1 FC ([2]; Table S3, THP-1, 12 h): 0,62 fold; TBK1 FC ([2]; Table S3, THP-1, 12 h): 1,19 fold; TLR4 FC ([2]; Table S3, THP-1, 12 h): 0,84 fold; TNFRSF1B FC ([2]; Table S3, THP-1, 12 h): 1,26 fold; TRAP1 FC ([2]; Table S3, THP-1, 12 h): 0,85 fold; cGAS FC ([2]; Table S3, THP-1, 12 h): 1,04 fold; number of upregulated genes not shared by the other groups ([2]; WT, 12 h, CDDO-Me 0.1 µM): > 500 genes; Average FC of upregulated Nrf2-dependent genes [2, 3]: 4.2 fold; number of upregulated genes (FC >2.0, p-adj <0.05) [2, 3]: 845 genes |
| COc1cc([C@@H](CC(=O)O)c2ccc(C)c(CN3C[C@@H](C)Oc4ccccc4S3(=O)=O)c2)cc2nnn(C)c12 [KI-696] | 26,39 fold | 0,94 fold | 1,59 fold | 0,61 fold | 0,77 fold | 1,38 fold | 1,74 fold | 0,90 fold | 1,02 fold | 0,70 fold | 0,91 fold | 0,85 fold | 1,43 fold | 2,64 fold | 3,38 fold | 0,82 fold | 1,21 fold | 0,60 fold | 0,78 fold | 0,57 fold | number of up- or downregulated genes in Nrf2 KO cells [1]: none; CYP1B1 FC ([2]; Table S3, THP-1, 12 h): 0,76 fold; NOXA1 FC ([2]; Table S3, THP-1, 12 h): 0,92 fold; SOCS1 FC ([2]; Table S3, THP-1, 12 h): 2,43 fold; SOCS3 FC ([2]; Table S3, THP-1, 12 h): 1,66 fold; SOD1 FC ([2]; Table S3, THP-1, 12 h): 1,75 fold; SOD2 FC ([2]; Table S3, THP-1, 12 h): 0,87 fold; STAT1 FC ([2]; Table S3, THP-1, 12 h): 0,69 fold; TBK1 FC ([2]; Table S3, THP-1, 12 h): 1,56 fold; TLR4 FC ([2]; Table S3, THP-1, 12 h): 0,32 fold; TNFRSF1B FC ([2]; Table S3, THP-1, 12 h): 1,13 fold; TRAP1 FC ([2]; Table S3, THP-1, 12 h): 1,02 fold; cGAS FC ([2]; Table S3, THP-1, 12 h): 1,08 fold; Average FC of upregulated Nrf2-dependent genes [2, 3]: 2.4 fold; number of upregulated genes (FC >2.0, p-adj <0.05) [2, 3]: 88 genes; GCLM fold change vs vehicle [2, 4]: 2.5 fold; GSR fold change vs vehicle [2, 4]: 2.4 fold; HMOX1 fold change vs vehicle [2, 4]: 2.6 fold; NQO1 fold change vs vehicle [2, 4]: 2.3 fold; TXNRD1 fold change vs vehicle [2, 4]: 2.3 fold |
| C[S+]([O-])CCCCN=C=S (stereo not shown) [SFN, sulforaphane] | 34,78 fold | 0,45 fold | 0,98 fold | 0,55 fold | 1,38 fold | 0,53 fold | 0,94 fold | 0,88 fold | 0,85 fold | 0,63 fold | 0,58 fold | 0,36 fold | 1,48 fold | 7,81 fold | 17,37 fold | 0,32 fold | 0,70 fold | 0,29 fold | 0,44 fold | 0,16 fold | cell viability (THP1 cells): contrasted; CYP1B1 FC [2]: 1,15 fold; NOXA1 FC ([2]; Table S3, THP-1, 12 h): 0,45 fold; SOCS1 FC ([2]; Table S3, THP-1, 12 h): 2,19 fold; SOCS3 FC ([2]; Table S3, THP-1, 12 h): 0,99 fold; SOD1 FC ([2]; Table S3, THP-1, 12 h): 2,16 fold; SOD2 FC ([2]; Table S3, THP-1, 12 h): 0,40 fold; STAT1 FC ([2]; Table S3, THP-1, 12 h): 0,66 fold; TBK1 FC ([2]; Table S3, THP-1, 12 h): 0,95 fold; TLR4 FC ([2]; Table S3, THP-1, 12 h): 0,43 fold; TNFRSF1B FC ([2]; Table S3, THP-1, 12 h): 1,19 fold; TRAP1 FC ([2]; Table S3, THP-1, 12 h): 0,74 fold; cGAS FC ([2]; Table S3, THP-1, 12 h): 1,42 fold; Average FC of upregulated Nrf2-dependent genes [2, 3]: 4.1 fold; number of upregulated genes (FC >2.0, p-adj <0.05) [2, 3]: 676 genes; GCLM fold change vs vehicle [2, 4]: 4.7 fold; GSR fold change vs vehicle [2, 4]: 3.4 fold; SRXN1 fold change vs vehicle [2, 4]: 4.5 fold; TXNRD1 fold change vs vehicle [2, 4]: 3.9 fold |
